Common to all, as to type: cell-based, human
Experiment [1] has as its system HeLa cells. Description: MTT in vitro growth inhibition assay, HeLa. Conditions: Homo sapiens, HeLa, two independent experiments. The method, then: (§1) Human cancer cell lines were obtained from the American Type Culture Collection (ATCC, Manassas, Va., USA), the European Collection of Cell Culture (ECACC, Salisbury, UK), and the Deutsche Sammlung von Mikroorganismen und Zellkulturen (DSMZ, Braunschweig, Germany). Human cervical adenocarcinoma HeLa cells were cultured in DMEM supplemented with 10% fetal bovine serum (FBS). Human mammary carcinoma MCF-7 cells were cultured in RPMI supplemented with 10% FBS. The U87 cells (ATCC HTB-14) were cultured in DMEM culture medium, while the A549 cells (DSMZ ACC107) were cultured in RPMI culture medium supplemented with 10% heat-inactivated FBS. The GBM Hs683 (ATCC HTB-138) and the T98G (ATCC CRL-1690) cell lines were cultivated in DMEM supplemented with 10% FBS. The GBM U251 cells (ECACC code 09063001) were cultured in 10% MEM. The human uterine sarcoma MES-SA and MES-SA/Dx5 cells were cultured in RPMI-1640 medium supplemented with 10% FBS with MES SA/Dx5 maintained in the presence of 500 nM Doxorubicin (Sigma™). The U373 glioblastoma cells (ECACC 08061901) were cultured in RPMI culture medium supplemented with 10% heat-inactivated FBS.
(§2) Spirodienones 4a-m were subjected to in vitro growth inhibition 3-(4,5-dimethylthiazol-2-yl)-2,5-diphenyltetrazolium bromide (MTT) assays against two cell lines, human HeLa cervical and MCF-7 breast adenocarcinomas.
(§3) All compounds were dissolved in DMSO at a concentration of either 100 mM or 50 mM prior to cell treatment. The cells were trypsinized and seeded at various cell concentrations depending on the cell type. The cells were grown for 24 h to 72 h, treated with compounds at concentrations ranging from 0.001 to 100 μM, and incubated for 48, 72, or 96 h in 100 or 200 μL media depending on the cell line used. Cells treated with 0.1% DMSO were used as a negative control, and cells treated with 1 μM phenyl arsine oxide (PAO) were used as a positive control.
(§4) To determine the activities of the compounds of the invention toward cancer cells, cell lines treated with different compounds were subjected to an in vitro MTT growth assay using human cervical cancer (HeLa) and human adenocarcinoma (MCF-7) cell lines. The MTT growth assay is a colorimetric assay that measures the metabolic activity of cells via reduction of 3-(4,5-dimethylthiazol-2-yl)-2,5-diphenyltetrazolium bromide (MTT). The reduction of MTT occurs in metabolically-active cells and is characterized by a purple color, which can be quantified via spectrophotometry. A higher absorbance reading indicates a metabolically-active cell, while a low absorbance reading indicates low metabolic activity due to, for example, inhibition of cellular proliferation or cell death.
(§5) The values in TABLE 4 are the mean and standard deviation calculated from two independent experiments, which were performed in 4 replicates.

For experiment [2], the system named is MCF-7 cells. The experiment is described as follows: MTT in vitro growth inhibition assay, MCF-7. As to conditions: Homo sapiens, two independent experiments. The method, then:
as §1, §2, §3, §4, §5

Experiment [3] deals with Hs683 cells. The experiment is described as follows: MTT growth inhibition, Hs683 glioma. Conditions: Homo sapiens. The method, then:
as §1, §3
(§6) Compound 4l was evaluated for in vitro growth inhibition against a panel of cancer cell lines, including U373, U251, U87, T98G, human GBM, and A549 NSCLC. […] Compound 4l was also evaluated for in vitro growth inhibition against the apoptosis-sensitive tumor model Hs683 anaplastic oligodendroglioma as a reference.
(§7) Due to their high potencies, compounds 5l and 5g were used to determine the effects of the compounds on drug-resistant tumor cells. Drug-resistant cell lines (i.e., glioma: Hs683, U373, U251, U87, T98G; lung cancer: A549, H2073; uterine carcinoma: MES-SA/Dx5) were complemented with drug-sensitive cell lines, H1993 lung cancer and MES-SA uterine cancer, which were used as controls. Bulbispermine and paclitaxel were also used as controls. The GI50 values were calculated after 48-96 hours of treatment with the indicated compounds in replicate using the MTT growth assay.

For experiment [4], the system named is U251 cells. Description: MTT growth inhibition, U251 glioma. Conditions: Homo sapiens. Here is the method: as §1, §3, §6, §7
Experiment [5] deals with U87 cells. Description: MTT growth inhibition, U87 glioma. Conditions: Homo sapiens, U-87 MG. Here is the method:
as §1, §3, §6, §7

Experiment [6] relates to T98G cells. Description: MTT growth inhibition, T98G glioma. Conditions: Homo sapiens, T98G. The method, then:
as §1, §3, §6, §7

For experiment [7], the system named is five GBM cell cultures (U373, T98G, U251, Hs683, U87). Description: MTT growth curves of five GBM cell cultures (populations resistant to proapoptotic agents). The text has this: Cells resistant to various pro-apoptotic stimuli often contain a sensitive population that quickly response to pro-apoptotic agents. However, a significant portion of the cells in a culture resist the effects of pro-apoptotic agents even at concentrations 100- or 1000-fold their GI50 values.

In experiment [8] the test system is A549 cells. The experiment is described as follows: MTT growth inhibition, A549 NSCLC. Here is the method:
as §1, §3
Drug-resistant cell lines (i.e., glioma: Hs683, U373, U251, U87, T98G; lung cancer: A549, H2073; uterine carcinoma: MES-SA/Dx5) were complemented with drug-sensitive cell lines, H1993 lung cancer and MES-SA uterine cancer, which were used as controls. […] The GI50 values were calculated after 48-96 hours of treatment with the indicated compounds in replicate using the MTT growth assay.
Compounds 5l and 5g were further tested using the A549 lung cancer cell line to determine a dose-response effect on apoptosis-resistant cells. (FIGS. 4-7). […] The MTT assay was performed in four replicates after 48 hours of treatment with the indicated compounds relative to a DMSO control.

Read-outs that look alike come from different tables or passages of the source.

With `O=C1C=CC2(C=C1)CCN(C(=O)C(F)(F)F)Cc1c2sc2ccccc12` [Compound 4l], the GI50 amounted to 10 µM in experiment [1] (48 h treatment, ± SD, read-out: cell viability GI50, HeLa); 7 ± 1 µM in experiment [2] (MCF7, MCF-7, 48 h treatment, ± SD, read-out: cell viability GI50, MCF-7); 5 µM in experiment [3] (Hs 683, Table 3, 48-96 h treatment, read-out: GI50 in vitro values, glioma Hs683); 4 µM in experiment [4] (U-251, Table 3, 48-96 h treatment, read-out: GI50 in vitro values, glioma U251); 6 µM in experiment [5] (Table 3, 48-96 h treatment, read-out: GI50 in vitro values, glioma U87); 15 µM in experiment [6] (Table 3, 48-96 h treatment, read-out: GI50 in vitro values, glioma T98G). Besides, the “resistant populations in growth curves of GBM cell cultures” value in experiment [7] (5 GBM cell lines, FIG. 1, one experiment in six replicates) was “absence of such resistant populations”.
As for `O=C1C=C[C@]23CC[N@](Cc4c2sc2ccccc42)[C@H]3C1` [Compound 5l], the GI50 was determined as 6.2 ± 1.13 µM in experiment [1] (Table 4, 48-hour treatment, mean and standard deviation, read-out: HeLa Cell Viability GI50); 4.7 ± 0.1 µM in experiment [2] (MCF7, Table 4, 48-hour treatment, mean and standard deviation, read-out: MCF-7 Cell Viability GI50); 6 µM in experiment [3] (Hs 683, Table 5, 48-96 hours of treatment, read-out: GI50, Glioma Hs683); 5 µM in experiment [4] (U-251, Table 5, 48-96 hours of treatment, read-out: GI50, Glioma U251); 5 µM in experiment [5] (Table 5, 48-96 hours of treatment, read-out: GI50, Glioma U87); 7 µM in experiment [6] (Table 5, 48-96 hours of treatment, read-out: GI50, Glioma T98G). The GI50 in experiment [8] (Homo sapiens, Table 5, 48-96 hours of treatment, read-out: GI50, Lung Cancer A549) stood at 4 µM. In experiment [8] (48 hours, up to 100 μM, FIGS. 4-7), the “anti-proliferative activity, dose-response (absorbance at 595 nm)” value is listed as “inhibited proliferation of the cells in a dose-dependent manner”. Further, the “dose-dependent effects against cell populations resistant to proapoptotic agents” value in experiment [7] (U373, T98G, U251, Hs683, U87, MTT, FIG. 8) is listed as “dose-dependent effects”.

By GI50 is commonly meant the concentration giving 50% growth inhibition.

The record behind these values is patent publication US10414778B2, “Methods for treatment of resistant cancer” (New Mexico Tech University Research Park Corporation, priority 2016, dated 2019).
